Data as given in publication PMC4893612 (Scientific Reports, 2016).

Legend:
OPM-2-BZ^R = assay: MTT antiproliferative assay, OPM-2-BZR; assay type: cell-based; conditions: Homo sapiens, OPM-2-BZ^R (bortezomib resistant), 72 hours
Experimental: (§1) Cell viability was monitored by the MTT (3-(4,5-dimethylthiazol-2-yl)-2,5-diphenyltetrazolium bromide) assay. For the MTT assay, cells were suspended at 5 × 10^5 cells/ml, and 100 μl aliquots were dispended into 96-well microtiter plates and exposed to drugs as described using DMSO control. At the end of incubations, 10 μl of a stock solution of 5 mg/ml MTT (3-(4,5-dimethylthiazol-2-yl)-2,5-diphenyltetrazolium bromide), was added into each well, and the plates were incubated 4 hours at 37 °C. Formazan crystals were dissolved with 100 μl of 10% SDS/10 mM HCl solution overnight at 37 °C. Since MTT assays are affected by mitochondrial activity, and since OXPHOS is affected by VLX1570 (unpublished observation), we used the acid phosphatase method[49] to determine cell viability in some experiments. After washing twice with PBS, cells were lysed in 100 μl of 0.1 M sodium acetate, 0,1% Triton X-100, p-nitrophenylphosphate (Pierce Biotechnology Inc, Rockford, IL) and incubated for 90 min at 37 °C. At the end of the incubation, 10 μl NaOH was added to each well and A405 was determined.

USP14 [1] = biological target: T1, USP14 (Homo sapiens, UniProt P54578); assay: SPR binding to recombinant USP14, CM7 chip; conditions: protein from Karolinska Institute Protein Science Facility, read-out: USP14(K) KD
Text: (§2) A BIACORE T200 was used for characterization of the interaction between compounds and USP14, UCHL5 and 26S proteasome. The standard BIACORE protocols were used for NTA chip (Ni/His-tag immobilization) and CM7 chip for compound interaction studies with slight modification described below. The x6 his-tagged USP14 and UCHL5 proteins were coupled to a Series S NTA BIACORE sensor chip in the BIACORE T200 using the his-tags for adherence of the proteins to the surface and an amine coupling procedure for covalent attachment to the chip surface. NTA chip was cleaned using three 500 μM EDTA injections followed by an injection of 500 μM Ni^2+ and activation of the chip surface with EDC/NHS injection according to BIACORE standard methods. Each chip has four separate areas, which were handled separately during the immobilization procedure. Area 1 was used as blank reference surface, area 2–4 was coupled with investigated recombinant proteins or complexes. Proteins were diluted in running buffer (10 mM HEPES, 150 mM NaCl, 0,005% Tween 20) to typically 10 μg/ml before injection(1 mL) over the prepared surfaces. […] The immobilization procedure was followed by injections of compound concentration series of VLX1570. […] Rmax and KD were calculated using Langmuir binding isotherms as provided in the Biacore software.

26S proteasome = 26S proteasome (Homo sapiens, UniProt P54578+Q9Y5K5); assay: SPR binding to 26S proteasomes, CM7 chip
Text: as §2

UCHL5 [2] = biological target: T2, UCHL5 (Homo sapiens, UniProt Q9Y5K5); assay: SPR binding to recombinant UCHL5, NTA chip; conditions: protein from ProSpec, read-out: UCHL5(P) KD
T2 sequence (Q9Y5K5 1-329): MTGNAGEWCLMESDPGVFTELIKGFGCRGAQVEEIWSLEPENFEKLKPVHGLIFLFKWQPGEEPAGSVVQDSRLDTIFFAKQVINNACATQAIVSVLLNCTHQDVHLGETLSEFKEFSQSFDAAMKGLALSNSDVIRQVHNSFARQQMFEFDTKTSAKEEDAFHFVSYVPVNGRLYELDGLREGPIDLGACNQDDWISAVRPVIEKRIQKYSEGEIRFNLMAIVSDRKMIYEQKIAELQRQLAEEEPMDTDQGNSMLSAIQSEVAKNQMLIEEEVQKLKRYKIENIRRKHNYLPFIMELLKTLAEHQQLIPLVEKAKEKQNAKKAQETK
Text: as §2

[3] = test system: 26S proteasome and immunoproteasome; assay: Proteasome and immunoproteasome proteolytic activity in OPM-2 cells; assay type: cell-based, human; conditions: 0.5 μM, 3 hours
OPM-2 = assay: MTT antiproliferative assay, OPM-2; assay type: cell-based; conditions: Homo sapiens, 72 hours
Experimental: as §1

MM cells = assay: Immunoblotting of polyubiquitinated proteins in MM cells; assay type: cell-based, human; conditions: 0.5 μM, 6 or 18 h
Experimental: (§3) Cell extract proteins were resolved by Tris-Acetate PAGE gels (Invitrogen, Carlsbad, CA) and transferred onto a polyvinylidene difluoride (PVDF) membrane for western blotting. For Ub-VS labeling, we lysed cell pellets from control or treated cells with buffer (50 mM HEPES pH 7.4, 250 mM sucrose, 10 mM MgCl2, 2 mM ATP, 1 mM DTT and 1%NP-40) on ice for 30 min and removed debris by centrifugation. We labeled 25 μg of protein with 1 μM Ub-VS for 30 min at 37 °C. We resolved samples by SDS-PAGE and performed immunoblotting. For HA-Ub-VS labeling, we pretreated purified 19S (5 nM) with DMSO or 2.5, 5, 10, 15 or 25μM 1570 for 10 min at room temperature, which followed with labeling with 1 μM HA-Ub-VS for 30 min at 37 °C and immunoblotting.

USP14 [4] = biological target: T1, USP14; assay: HA-Ub-VS active-site labeling of purified 19S, USP14; assay type: biochemical; set-up: purchased Boston Biochem E-366; conditions: purified 19S RP; 2.5 μM
Experimental: as §3

myeloma cells = assay: CFSE cell proliferation assay; assay type: cell-based, human; conditions: 0.25 μM or 0.5 μM; 72 hours
Experimental: Cell proliferation was measured using the Cell trace^TM CSFE cell proliferation kit. Cells were suspended at 5 × 10^5 cells/ml, incubated with CellTrace^TM reagent for 20 minutes and exposed to the drug at indicated concentrations using DMSO as a control. After 72 h cells were collected, washed twice in 1× PBS, fixed with 3,7% formaldehyde and analysed by flow cytometry.

[5] = set-up: method as in PMID 25854145; conditions: cited from earlier work
OPM-2 cells = assay: 3H-VLX1570 retention after wash-out in OPM-2 cells; assay type: cell-based, human; conditions: 1 hour exposure, 17 hours in drug-free medium
USP14 [6] = biological target: T1, USP14; assay: Ub-VS labeling of lysates of exposed OPM-2 cells, USP14; assay type: cell-based; set-up: endogenous in cells; host or cells: OPM-2 multiple myeloma cells; conditions: 0.5 μM, 3 hours
Experimental: as §3

UCHL5 [7] = biological target: T2, UCHL5; assay: Ub-VS labeling of lysates of exposed OPM-2 cells, UCHL5; assay type: cell-based; set-up: endogenous in cells; host or cells: OPM-2 multiple myeloma cells; conditions: 0.5 μM, 3 hours
Experimental: as §3

T1 sequence (P54578 whole entry): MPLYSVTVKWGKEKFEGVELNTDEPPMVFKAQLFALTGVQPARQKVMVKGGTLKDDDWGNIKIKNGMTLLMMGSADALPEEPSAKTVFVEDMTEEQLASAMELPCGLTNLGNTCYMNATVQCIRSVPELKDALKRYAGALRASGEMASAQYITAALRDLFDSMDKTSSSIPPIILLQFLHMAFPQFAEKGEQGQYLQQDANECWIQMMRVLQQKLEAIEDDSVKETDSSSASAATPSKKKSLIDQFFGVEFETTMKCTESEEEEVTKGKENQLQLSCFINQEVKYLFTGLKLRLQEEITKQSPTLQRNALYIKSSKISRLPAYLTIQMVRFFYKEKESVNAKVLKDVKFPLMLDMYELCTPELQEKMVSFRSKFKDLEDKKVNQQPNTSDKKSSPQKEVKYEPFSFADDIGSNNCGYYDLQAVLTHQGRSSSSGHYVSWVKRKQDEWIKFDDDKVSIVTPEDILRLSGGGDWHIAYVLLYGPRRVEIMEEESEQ
Sequence of 26S proteasome (P54578 whole entry, one chain of several): as the sequence (P54578 whole entry) above
Sequence of 26S proteasome (Q13200 whole entry partner, one chain of several): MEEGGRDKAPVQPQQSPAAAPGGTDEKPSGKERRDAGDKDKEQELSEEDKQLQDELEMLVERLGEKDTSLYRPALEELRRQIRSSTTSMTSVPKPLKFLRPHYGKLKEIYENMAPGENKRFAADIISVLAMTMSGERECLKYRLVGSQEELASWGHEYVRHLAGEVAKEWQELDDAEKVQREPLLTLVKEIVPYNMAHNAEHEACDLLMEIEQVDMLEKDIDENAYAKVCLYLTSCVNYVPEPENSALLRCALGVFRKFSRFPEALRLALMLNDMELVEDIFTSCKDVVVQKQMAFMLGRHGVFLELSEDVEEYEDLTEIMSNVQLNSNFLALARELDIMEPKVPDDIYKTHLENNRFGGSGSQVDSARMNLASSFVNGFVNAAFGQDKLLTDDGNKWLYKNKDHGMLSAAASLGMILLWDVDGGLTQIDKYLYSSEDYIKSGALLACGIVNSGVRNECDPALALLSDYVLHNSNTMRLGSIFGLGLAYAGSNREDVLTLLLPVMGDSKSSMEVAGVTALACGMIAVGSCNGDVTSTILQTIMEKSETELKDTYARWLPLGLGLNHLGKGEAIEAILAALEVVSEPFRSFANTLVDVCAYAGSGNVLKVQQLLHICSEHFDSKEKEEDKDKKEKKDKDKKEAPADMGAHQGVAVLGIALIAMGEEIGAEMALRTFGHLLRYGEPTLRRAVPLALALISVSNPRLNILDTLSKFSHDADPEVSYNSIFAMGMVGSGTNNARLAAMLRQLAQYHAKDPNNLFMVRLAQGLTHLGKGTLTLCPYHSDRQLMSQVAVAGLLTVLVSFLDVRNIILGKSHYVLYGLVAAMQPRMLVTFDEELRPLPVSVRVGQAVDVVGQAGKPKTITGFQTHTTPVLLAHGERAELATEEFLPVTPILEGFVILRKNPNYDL

SMILES: C=CC(=O)N1CC/C(=C\c2ccc(F)c([N+](=O)[O-])c2)C(=O)/C(=C/c2ccc(F)c([N+](=O)[O-])c2)C1 [VLX1570]
- IC50 (OPM-2-BZ^R): 0.191 ± 0.001 µM
- Kd (USP14 [1]): 35 µM
- VLX1570 binding Relative RU × 100 +/− S.D. (26S proteasome; immobilised 26S proteasome): 0.21 ± 0.09
- VLX1570 binding Relative RU × 100 +/− S.D. (26S proteasome; immobilised 26S proteasome pre-incubated with Ub-VS): 0.04 ± 0.01
- Kd (UCHL5 [2]): 14 µM
- chymotryptic, tryptic and caspase-like activity of 26S proteasome and chymotryptic activity of immunoproteasome [3]: no change
- IC50 (OPM-2): 0.126 ± 0.003 µM
- accumulation of polyubiquitinated proteins (MM cells): polyubiquitinated proteins accumulated
- inhibition of USP14 activity (Ub-VS labeling) (USP14 [4]): strongly inhibited
- cell cycle arrest (CFSE dilution) (myeloma cells): arrest myeloma cells in the cell cycle
- solubility compared to b-AP15 [5]: improved solubility
- drug associated with the cells after wash-out (OPM-2 cells): Approximately 70%
- inhibition of USP14 activity in exposed cells (USP14 [6]): Inhibition of USP14 activity could be demonstrated
- UCHL5 inhibition in exposed cells (UCHL5 [7]): weak in comparison
